Experimental data as given in BindingDB's records for doi:10.1021/acs.jmedchem.5b00079 (Saarland University and Helmholtz Institute For …, 2015).

Target: T1, Cytochrome P450 11B1, mitochondrial (Homo sapiens, UniProt P15538)
T1 sequence (P15538 whole entry): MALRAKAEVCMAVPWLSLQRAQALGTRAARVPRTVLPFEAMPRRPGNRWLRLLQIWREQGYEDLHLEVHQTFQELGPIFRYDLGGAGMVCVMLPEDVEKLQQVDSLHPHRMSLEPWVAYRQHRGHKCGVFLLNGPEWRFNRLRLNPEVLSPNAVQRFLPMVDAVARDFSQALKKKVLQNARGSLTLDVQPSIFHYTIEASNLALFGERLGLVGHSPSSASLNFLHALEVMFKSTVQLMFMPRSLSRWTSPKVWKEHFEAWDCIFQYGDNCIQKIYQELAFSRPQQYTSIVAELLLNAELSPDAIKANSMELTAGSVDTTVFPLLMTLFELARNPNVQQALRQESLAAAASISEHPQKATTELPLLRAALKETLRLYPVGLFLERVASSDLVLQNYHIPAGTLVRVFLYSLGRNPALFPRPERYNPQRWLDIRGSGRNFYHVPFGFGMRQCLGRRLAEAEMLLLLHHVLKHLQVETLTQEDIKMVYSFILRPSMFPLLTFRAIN
Assay: Inhibition of human CYP11B1 expressed in V79 MZh cells using [14C]-deoxycorticosterone substrate incubated for 6 hrs by HPTLC method

Q: Which IC50 does the source give for `Cc1nnc2n1-c1c(F)cc(-c3cncc(F)c3)cc1CC2` here?
A: 29.5 µM
